# According to patent US6294568A, “5-arylpyrrole derivatives” (priority 1997, dated 2001):
# pIC50: −log10 of the molar value.
# Legend:
# Human COX-2 = target: T1, Human COX-2 (Homo sapiens, UniProt P35354); test: Human COX-2 Inhibitory Activity Test (LPS-induced PGE2 in blood); assay type: cell-based
# T1 construct: endogenous in cells; host or cells: heparinised whole blood of a healthy human donor pretreated with aspirin, stimulated with LPS (own knowledge: COX-2 is induced in monocytes)
# T1 sequence (P35354 18-604): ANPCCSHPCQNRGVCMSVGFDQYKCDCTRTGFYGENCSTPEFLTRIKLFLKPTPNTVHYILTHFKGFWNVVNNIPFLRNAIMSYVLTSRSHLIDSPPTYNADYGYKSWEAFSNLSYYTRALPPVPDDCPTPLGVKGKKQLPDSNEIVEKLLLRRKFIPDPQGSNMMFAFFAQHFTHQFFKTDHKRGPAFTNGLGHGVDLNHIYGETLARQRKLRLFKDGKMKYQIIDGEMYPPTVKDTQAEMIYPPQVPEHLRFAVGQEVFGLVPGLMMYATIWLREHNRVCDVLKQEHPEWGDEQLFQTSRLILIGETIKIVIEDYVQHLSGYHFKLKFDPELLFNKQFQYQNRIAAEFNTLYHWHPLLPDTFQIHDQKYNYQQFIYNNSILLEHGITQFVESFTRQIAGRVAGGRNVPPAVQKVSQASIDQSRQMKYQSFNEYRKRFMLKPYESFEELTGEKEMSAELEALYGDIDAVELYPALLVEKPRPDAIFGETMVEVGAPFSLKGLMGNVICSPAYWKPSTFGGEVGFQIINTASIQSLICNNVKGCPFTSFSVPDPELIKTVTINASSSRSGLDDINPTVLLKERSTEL
# Protocol: COX-1 and COX-2 activities were measured according to the method of Patrignani et al. (J. Pharm. Exp. Ther. Vol. 271, 1705 (1994)).
# (2) COX-2 activity was measured in the following procedure. To blood collected from a healthy normal who had taken 330 mg of aspirin 48 hours before the blood collection in order to inhibit the COX-1 activity, 10 unit/ml of sodium heparin was added, and then pipetted into glass test tubes by 1 ml. 10 μg/ml of Lipopolysaccharide (LPS) was added thereto and the plasma obtained by the specified operation was stored at -40° C. until the measurement for the amount of prostaglandin E2 (PGE2). Test samples containing the test samples were treated in the same manner of operation as described above.
# (4) The measurement for the PGE2 content was conducted in the following procedure. In a part of 96 well plate coated with goat anti-mouse antibody, 2 wells were alloted respectively to a blank well, Non-specific Binding (NSB) well, Maximum Binding (B0) well, standard wells at seven concentrations of PGE2 (1000 pg/ml) in doubling dilution ranging from 1000-15.6 pg/ml. The rest of the wells were used for the sample measurement. EIA buffer was added to the NSB wells (100 μl) and to the B0 wells (50 μl), respectively. 50 μl of each of the standard dilution was added in an order from thinner to thicker concentrations. Each of the samples was added to the rest of the wells in an amount of 50 μl. Then, 50 μl of PGE2 tracer was added to each of the wells except for blank wells. Further, 50 μl PGE2 monoclonal antibody was added to each of the wells except for the NSB wells and blank wells, then the well plate was covered with a plastic film and the reaction continued at room temperature for 18 hours. When the reaction was terminated, the wells were washed 5 times with a wash buffer. 200 μl of Elman's reagent was added to each of the wells, and then the well plate was covered with a plastic film and developed for 60 minutes in a dark place. The absorbance at 405 nm was measured by an Immuno Reader (NJ-2000, manufactured by Nippon Intermed Co., Ltd.). From the measurement result, %B/B0 was calculated and, applying it to the approximation formula of Hill Plot, the concentration of the samples was determined to be 40 times concentration. The dilution was conducted with an EIA buffer throughout the Test Example 3.
# Subcute Toxicity Test = assay type: in vivo, SD rats; details: 100 mg/kg once daily for 14 days, male and female rats
# Protocol: The Subcute toxicity test was conducted as described in the following. SD rats (six each of male and female rats per group) were employed in the present test. The title compound (Preparation Example 1) was suspended in 0.5% methyl cellulose solution to be administered to the rats by a disposable feeding tube (manufactured by Fuchigami Kikai) once daily for 14 days. The dosage of the test samples was 100 mg/kg.
# Acute Toxicity Test = assay type: in vivo, SD rats
# Protocol: SD rats (3 rats per group) fasted overnight was employed in the present test. The title compound (Preparation Example 1) suspended in 1% methyl cellulose was administered to the rats. The test was conducted on the dosages of […]. […] It was indicted from the test result that the title compounds ensure the enhanced safety.
# adjuvant arthritis = test: Rat Adjuvant Arthritis Test; assay type: in vivo, SD rats; details: 3 mg/kg, oral
# Protocol: SD rats were injected subcutaneously with […] liquid paraffin/rat of H-37RA strain in the plantar area of the right hind paw. Only liquid paraffin (0.05 ml) was administered to control groups in the same manner. 21 days after the administration, rats showing the evidence of arthritis were selected and divided into groups having equal mean left and right hind paw volumes, and also having equal arthritis scores. From the date of the grouping, the test samples were administered orally to the rats once daily for 7 days (only the solvent was administered to the negative and positive control groups). The degree of the arthritis was quantitatively evaluated by measuring the volumes of the left and right hind paws by using a volume meter (manufactured by Muromachi Kikai) and by scoring the degree of arthritis by macroscopic observation as illustrated in Table 2. According to the scoring criteria in Table 2, 15 is a perfect score.
# The dosage of each of the test samples was 3 mg/kg.
# Sarcoma 180 solid tumor = test: Antitumor Effect with respect to Sarcoma 180 Solid Tumor Mouse; assay type: in vivo, ICR mice; details: 10 mg/kg in abdominal cavity, 10 days; day 11
# Protocol: The antitumor effect test was conducted according to the method of the U. S. National Cancer Institute (NCI) (Cancer Chemotherapy Reports part 3, Vol. 3, 1 (1978)). Cell suspension of Sarcoma 180 cells (mouse sarcoma virus) which was employed as the tumor cell strain for transplant was prepared by diluting the cells in the Hank's solution at 2×10^7 cells/ml concentration ([…]), and ICR mice (10 mice per group) aged 5 weeks were injected subcutaneously with 0.2 ml of the cell suspension at the region of the back. Setting the day of the tumor transplantation as day 0. the mice were administered in the abdominal cavity with the compounds of the invention (Preparation Examples 1 and 37), 5-fluorouracyl, and the solution as the control for 10 days consecutively from day 1. On day 11, the mice were sacrificed, and portions of the solid tumor were removed so that weights thereof were measured. The dosage of each of the test samples was 10 mg/kg.
compound,measurement,setting,value
"Cc1cc(-c2ccc(F)cc2)c(-c2ccc(S(C)(=O)=O)cc2)[nH]1 [Preparation Example 1, 4-(4-fluorophenyl)-2-methyl-5-(4-methylsulfonylphenyl)-1H-pyrrole]",pIC50,"Human COX-2; human blood, LPS, PGE2, IC50 from Hill Plot",6.02
same,COX-1/COX-2,Human COX-2; ratio of IC50 COX-1 to COX-2,683
same,general symptoms and weight increase,Subcute Toxicity Test,neither of a change in the general symptoms nor an adverse affect on the weight increase was noted
same,death,"Acute Toxicity Test; 500/kg, 1000/kg, 2000/kg, observed for a week",no death was noted in the test
same,general symptoms after administration,"Acute Toxicity Test; rat, in vivo","an analgesic action was noted after the administration, and the rats recovered to the normal state in one hour"
same,weight and general symptoms after one week,"Acute Toxicity Test; rat, in vivo",the weight increased favorably and no abnormality was noted in the general symptoms
same,Right Hind Paw Volume day 21,"adjuvant arthritis; day 21 (starting date of administration), once daily",3.86 mL
same,Right Hind Paw Volume day 27,"adjuvant arthritis; day 27, once daily for 7 days",2.96 mL
same,Tumor Weight,Sarcoma 180 solid tumor,0.726 g
